Measured values taken from paper PMC5218480 (PLoS ONE, 2017).

System: MV-4-11 cells
Experiment: Gene expression microarray analysis (Affymetrix PrimeView) and GSEA
Assay type: cell-based, human
Set-up: RFU PODN (11730768_x_at) / Fold change /veh PODN (11730768_x_at) / RFU LINC00158 (11744669_a_at) / Fold change /veh LINC00158 (11744669_a_at) / RFU DUSP10 (11751237_a_at) / Fold change /veh DUSP10 (11751237_a_at) / RFU ID3 (11757404_x_at) / Fold change /veh ID3 (11757404_x_at) / RFU PLEKHG5 (11737974_s_at) / Fold change /veh PLEKHG5 (11737974_s_at) / RFU LRRC4B (11730491_at) / Fold change /veh LRRC4B (11730491_at) / RFU GIMAP4 (11747438_a_at) / Fold change /veh GIMAP4 (11747438_a_at) / RFU KRT8 (11758183_x_at) / Fold change /veh KRT8 (11758183_x_at) / RFU CNN1 (11734310_a_at) / Fold change /veh CNN1 (11734310_a_at) / RFU VPS37D (11726825_at) / Fold change /veh VPS37D (11726825_at) / RFU C10orf10 (11716522_x_at) / Fold change /veh C10orf10 (11716522_x_at) / RFU KIR2DL2 /// KIR2DL4 /// KIR2DL5A /// KIR2DL5B /// KIR2DS1 /// KIR2DS2 /// KIR2DS3 /// KIR2DS4 /// KIR3DL3 /// KIR3DL3 /// KIR3DS1 (11738374_at) / Fold change /veh KIR2DL2 /// KIR2DL4 /// KIR2DL5A /// KIR2DL5B /// KIR2DS1 /// KIR2DS2 /// KIR2DS3 /// KIR2DS4 /// KIR3DL3 /// KIR3DL3 /// KIR3DS1 (11738374_at) / RFU C1QL1 (11718748_at) / Fold change /veh C1QL1 (11718748_at) / RFU TMPRSS4 (11747572_a_at) / Fold change /veh TMPRSS4 (11747572_a_at) / RFU HAMP (11756126_x_at) / Fold change /veh HAMP (11756126_x_at) / RFU RNFT2 (11725882_a_at) / Fold change /veh RNFT2 (11725882_a_at) / RFU NR4A2 (11747474_a_at) / Fold change /veh NR4A2 (11747474_a_at) / RFU ABCC12 (11746883_a_at) / Fold change /veh ABCC12 (11746883_a_at) / RFU TMEM136 (11760407_x_at) / Fold change /veh TMEM136 (11760407_x_at) / RFU CLDN22 /// WWC2 (11732394_at) / Fold change /veh CLDN22 /// WWC2 (11732394_at) / RFU HLA-DPB1 (11760878_x_at) / Fold change /veh HLA-DPB1 (11760878_x_at) / RFU SPINT1 (11716480_a_at) / Fold change /veh SPINT1 (11716480_a_at) / RFU GAP43 (11754022_s_at) / Fold change /veh GAP43 (11754022_s_at) / RFU A4GNT (11735810_at) / Fold change /veh A4GNT (11735810_at) / RFU PRB3 (11715151_x_at) / Fold change /veh PRB3 (11715151_x_at) / RFU TUBB4B (11761932_at) / Fold change /veh TUBB4B (11761932_at) / RFU CAPN14 (11732068_a_at) / Fold change /veh CAPN14 (11732068_a_at) / RFU TMCC2 (11721928_a_at) / Fold change /veh TMCC2 (11721928_a_at) / RFU IRGQ (11745062_a_at) / Fold change /veh IRGQ (11745062_a_at) / RFU FAM174B (11720279_a_at) / Fold change /veh FAM174B (11720279_a_at) / RFU TMPRSS4 (11748680_a_at) / Fold change /veh TMPRSS4 (11748680_a_at) / RFU FAM212B (11763350_a_at) / Fold change /veh FAM212B (11763350_a_at) / RFU PLEKHG5 (11743358_a_at) / Fold change /veh PLEKHG5 (11743358_a_at) / RFU ZSCAN30 (11745921_a_at) / Fold change /veh ZSCAN30 (11745921_a_at) / RFU CMKLR1 (11741424_a_at) / Fold change /veh CMKLR1 (11741424_a_at) / RFU LOC101060620 /// MAPK8IP1 (11723275_at) / Fold change /veh LOC101060620 /// MAPK8IP1 (11723275_at) / RFU SPTSSB (11747773_x_at) / Fold change /veh SPTSSB (11747773_x_at) / RFU PRSS12 (11739890_at) / Fold change /veh PRSS12 (11739890_at) / RFU BIN1 (11741810_x_at) / Fold change /veh BIN1 (11741810_x_at) / RFU WNT11 (11732464_a_at) / Fold change /veh WNT11 (11732464_a_at) / RFU C10orf10 (11716521_a_at) / Fold change /veh C10orf10 (11716521_a_at) / RFU C5orf56 (11738089_at) / Fold change /veh C5orf56 (11738089_at) / RFU CYB561 (11721691_x_at) / Fold change /veh CYB561 (11721691_x_at) / RFU ANKRD19P (11752326_a_at) / Fold change /veh ANKRD19P (11752326_a_at) / RFU OR2T12 /// OR2T33 /// OR2T8 (11738714_s_at) / Fold change /veh OR2T12 /// OR2T33 /// OR2T8 (11738714_s_at) / RFU VCAN (11748164_a_at) / Fold change /veh VCAN (11748164_a_at) / RFU JSRP1 (11732532_at) / Fold change /veh JSRP1 (11732532_at) / RFU KRTAP10-11 (11738290_x_at) / Fold change /veh KRTAP10-11 (11738290_x_at) / RFU MYO3A (11730013_a_at) / Fold change /veh MYO3A (11730013_a_at) / RFU EBF3 (11725865_a_at) / Fold change /veh EBF3 (11725865_a_at) / RFU CAMK2N1 (11719241_x_at) / Fold change /veh CAMK2N1 (11719241_x_at) / RFU C5orf56 (11738088_a_at) / Fold change /veh C5orf56 (11738088_a_at) / RFU OLFML3 (11715873_a_at) / Fold change /veh OLFML3 (11715873_a_at) / RFU LOC100653217 /// NTM (11731650_a_at) / Fold change /veh LOC100653217 /// NTM (11731650_a_at) / RFU MAPK11 (11762145_a_at) / Fold change /veh MAPK11 (11762145_a_at) / RFU FIZ1 (11724087_x_at) / Fold change /veh FIZ1 (11724087_x_at) / RFU OASL (11726364_x_at) / Fold change /veh OASL (11726364_x_at) / RFU SOX15 (11748057_x_at) / Fold change /veh SOX15 (11748057_x_at) / RFU CD79A (11719716_a_at) / Fold change /veh CD79A (11719716_a_at) / RFU HIST1H1D (11736915_at) / Fold change /veh HIST1H1D (11736915_at) / RFU CASKIN2 (11723855_a_at) / Fold change /veh CASKIN2 (11723855_a_at) / RFU LOC730098 (11760151_x_at) / Fold change /veh LOC730098 (11760151_x_at) / RFU OR4N2 (11742367_at) / Fold change /veh OR4N2 (11742367_at) / RFU PRRT2 (11749266_a_at) / Fold change /veh PRRT2 (11749266_a_at) / RFU SNX32 (11753110_a_at) / Fold change /veh SNX32 (11753110_a_at) / RFU CDHR5 (11726645_a_at) / Fold change /veh CDHR5 (11726645_a_at) / RFU RCAN1 (11760418_a_at) / Fold change /veh RCAN1 (11760418_a_at) / RFU FAM167A (11723789_a_at) / Fold change /veh FAM167A (11723789_a_at) / RFU FAM26E (11764081_at) / Fold change /veh FAM26E (11764081_at) / RFU ISYNA1 (11749810_s_at) / Fold change /veh ISYNA1 (11749810_s_at) / RFU ACY1 (11761880_at) / Fold change /veh ACY1 (11761880_at) / RFU 11764098_at / Fold change /veh 11764098_at / RFU SAMD14 (11745864_x_at) / Fold change /veh SAMD14 (11745864_x_at) / RFU NPB (11741838_a_at) / Fold change /veh NPB (11741838_a_at) / RFU TMPRSS6 (11731388_a_at) / Fold change /veh TMPRSS6 (11731388_a_at) / RFU KRTAP10-2 (11738614_at) / Fold change /veh KRTAP10-2 (11738614_at) / RFU ARHGAP8 /// PRR5-ARHGAP8 (11727945_x_at) / Fold change /veh ARHGAP8 /// PRR5-ARHGAP8 (11727945_x_at) / RFU KRTAP5-7 /// NADSYN1 (11734609_at) / Fold change /veh KRTAP5-7 /// NADSYN1 (11734609_at) / RFU RASL12 (11751679_a_at) / Fold change /veh RASL12 (11751679_a_at) / RFU CDKN2B (11736163_a_at) / Fold change /veh CDKN2B (11736163_a_at) / RFU PRF1 (11729649_at) / Fold change /veh PRF1 (11729649_at) / RFU, ZNF638 /// ZNF638-IT1 / Fold change vs veh, ZNF638 /// ZNF638-IT1 / RFU, PANK3 / Fold change vs veh, PANK3 / RFU, SH3YL1 / Fold change vs veh, SH3YL1 / RFU, ZEB2 / Fold change vs veh, ZEB2 / RFU, NRIP1 / Fold change vs veh, NRIP1 / RFU, PTTG1IP / Fold change vs veh, PTTG1IP / RFU, CAPN2 / Fold change vs veh, CAPN2 / RFU, MED14 / Fold change vs veh, MED14 / RFU, SNORA58 / Fold change vs veh, SNORA58 / RFU, C1orf63 / Fold change vs veh, C1orf63 / RFU, LRRFIP1 / Fold change vs veh, LRRFIP1 / RFU, NDUFAF7 / Fold change vs veh, NDUFAF7 / RFU, SLC12A2 / Fold change vs veh, SLC12A2 / RFU, IBTK / Fold change vs veh, IBTK / RFU, ESF1 / Fold change vs veh, ESF1 / Fold change vs veh, TMEM50B / RFU, TAOK1 / Fold change vs veh, TAOK1 / RFU, ACBD3 / Fold change vs veh, ACBD3 / RFU, TMA16 / Fold change vs veh, TMA16 / RFU, RWDD3 / Fold change vs veh, RWDD3 / RFU, BCAT1 / Fold change vs veh, BCAT1 / RFU, EDEM3 / Fold change vs veh, EDEM3 / RFU, TMEM33 / Fold change vs veh, TMEM33 / RFU, WDR75 / Fold change vs veh, WDR75 / RFU, AHCTF1 / Fold change vs veh, AHCTF1 / RFU, TFRC / Fold change vs veh, TFRC / RFU, ZDHHC17 / Fold change vs veh, ZDHHC17 / RFU, NOM1 / Fold change vs veh, NOM1 / RFU, ARL8B / Fold change vs veh, ARL8B / RFU, ZBTB11 / Fold change vs veh, ZBTB11 / RFU, TAMM41 / Fold change vs veh, TAMM41 / RFU, KIAA1704 /// LOC100996395 / Fold change vs veh, KIAA1704 /// LOC100996395 / RFU, ING1 / Fold change vs veh, ING1 / RFU, TRMT61B / Fold change vs veh, TRMT61B / RFU, FUBP3 / Fold change vs veh, FUBP3 / RFU, TP53 / Fold change vs veh, TP53 / RFU, TNKS2 / Fold change vs veh, TNKS2 / RFU, ZFP14 / Fold change vs veh, ZFP14 / RFU, ACTR2 / Fold change vs veh, ACTR2 / RFU, PPP3R1 / Fold change vs veh, PPP3R1 / RFU, PIK3R1 / Fold change vs veh, PIK3R1 / RFU, HNRNPA1 / Fold change vs veh, HNRNPA1 / RFU, RNF170 / Fold change vs veh, RNF170 / RFU, ZNF28 / Fold change vs veh, ZNF28 / RFU, RNGTT / Fold change vs veh, RNGTT / RFU, OGT / Fold change vs veh, OGT / RFU, BRD1 / Fold change vs veh, BRD1 / RFU, MARS / Fold change vs veh, MARS / RFU, ZNF655 / Fold change vs veh, ZNF655 / RFU, FAHD1 / Fold change vs veh, FAHD1 / RFU, BDP1 / Fold change vs veh, BDP1 / RFU, LRRCC1 / Fold change vs veh, LRRCC1 / RFU, ARID1A / Fold change vs veh, ARID1A / RFU, ZNF146 / Fold change vs veh, ZNF146 / RFU, ZNF330 / Fold change vs veh, ZNF330 / RFU, GPN3 / Fold change vs veh, GPN3 / RFU, C9orf123 / Fold change vs veh, C9orf123 / RFU, N4BP2L2 / Fold change vs veh, N4BP2L2 / RFU, ARFIP1 / Fold change vs veh, ARFIP1 / RFU, FAM179B / Fold change vs veh, FAM179B / RFU, BCL10 / Fold change vs veh, BCL10 / RFU, UHRF1BP1L / Fold change vs veh, UHRF1BP1L / RFU, BET1 / Fold change vs veh, BET1 / RFU, CNOT2 / Fold change vs veh, CNOT2 / RFU, ZNF268 / Fold change vs veh, ZNF268 / Fold change vs veh, ZNF507 / RFU, DGCR2 / Fold change vs veh, DGCR2 / RFU, WDSUB1 / Fold change vs veh, WDSUB1 / Fold change vs veh, HSP90B1 /// MIR3652 / RFU, ADSS / Fold change vs veh, ADSS / RFU, GK / Fold change vs veh, GK / RFU, ZNF148 / Fold change vs veh, ZNF148 / RFU, TAF9 / Fold change vs veh, TAF9 / RFU, SLC1A5 / Fold change vs veh, SLC1A5 / RFU, SLMO2 / Fold change vs veh, SLMO2 / RFU, ABCC4 / Fold change vs veh, ABCC4 / RFU, LOC101060439 /// RAP1B / Fold change vs veh, LOC101060439 /// RAP1B / RFU, RFX7 / Fold change vs veh, RFX7 / RFU, GTPBP10 / Fold change vs veh, GTPBP10 / RFU, CNEP1R1 / Fold change vs veh, CNEP1R1 / RFU, BIVM-ERCC5 /// ERCC5 / Fold change vs veh, BIVM-ERCC5 /// ERCC5 / RFU, ILF3 / Fold change vs veh, ILF3 / RFU 11762660_at / Fold change /veh 11762660_at / RFU VCAN (11757783_s_at) / Fold change /veh VCAN (11757783_s_at) / RFU DDX43 (11728927_at) / Fold change /veh DDX43 (11728927_at) / RFU KRT8 (11758188_x_at) / Fold change /veh KRT8 (11758188_x_at) / RFU NKD1 (11759106_at) / Fold change /veh NKD1 (11759106_at) / RFU SRD5A1 (11742802_a_at) / Fold change /veh SRD5A1 (11742802_a_at) / RFU TPSAB1 /// TPSB2 (11721975_s_at) / Fold change /veh TPSAB1 /// TPSB2 (11721975_s_at) / RFU GSTM3 (11746129_a_at) / Fold change /veh GSTM3 (11746129_a_at) / RFU IL23R (11737362_x_at) / Fold change /veh IL23R (11737362_x_at) / RFU TMEM51 (11727254_a_at) / Fold change /veh TMEM51 (11727254_a_at) / RFU PIWIL2 (11732686_x_at) / Fold change /veh PIWIL2 (11732686_x_at) / RFU ORM1 (11744905_x_at) / Fold change /veh ORM1 (11744905_x_at) / RFU CCDC152 (11743942_at) / Fold change /veh CCDC152 (11743942_at) / RFU ECM1 (11717891_a_at) / Fold change /veh ECM1 (11717891_a_at) / RFU IL23R (11748794_a_at) / Fold change /veh IL23R (11748794_a_at) / RFU TNFAIP8L3 (11732012_x_at) / Fold change /veh TNFAIP8L3 (11732012_x_at) / RFU MBOAT4 (11741988_at) / Fold change /veh MBOAT4 (11741988_at) / RFU 11764193_at / Fold change /veh 11764193_at / RFU TMEM53 (11763286_at) / Fold change /veh TMEM53 (11763286_at) / RFU MAGEB2 (11727129_at) / Fold change /veh MAGEB2 (11727129_at) / RFU TMEM200A (11744735_a_at) / Fold change /veh TMEM200A (11744735_a_at) / RFU CCDC152 (11751479_a_at) / Fold change /veh CCDC152 (11751479_a_at) / RFU FAM211A (11726209_a_at) / Fold change /veh FAM211A (11726209_a_at) / RFU RGS16 (11746705_a_at) / Fold change /veh RGS16 (11746705_a_at) / RFU VCAN (11755009_s_at) / Fold change /veh VCAN (11755009_s_at) / RFU RHOB (11743442_s_at) / Fold change /veh RHOB (11743442_s_at) / RFU RGS16 (11720943_a_at) / Fold change /veh RGS16 (11720943_a_at) / RFU RGS16 (11720944_at) / Fold change /veh RGS16 (11720944_at) / RFU, VPS4B / Fold change vs veh, VPS4B / RFU, CREB1 / Fold change vs veh, CREB1 / RFU, DNAJC13 / Fold change vs veh, DNAJC13 / RFU, GNAQ / Fold change vs veh, GNAQ / RFU, CDK5R1 / Fold change vs veh, CDK5R1 / RFU, ZRANB3 / Fold change vs veh, ZRANB3 / RFU, CUL4A / Fold change vs veh, CUL4A / RFU, CCNY / Fold change vs veh, CCNY / RFU, UFL1 / Fold change vs veh, UFL1 / RFU, COG3 / Fold change vs veh, COG3 / RFU, DIAPH2 / Fold change vs veh, DIAPH2 / RFU, SKA2 / Fold change vs veh, SKA2 / RFU, AFF3 / Fold change vs veh, AFF3 / RFU, LMF1 / Fold change vs veh, LMF1 / RFU, IPO11 / Fold change vs veh, IPO11 / RFU, DFFB / Fold change vs veh, DFFB / RFU, FOXP1 / Fold change vs veh, FOXP1 / RFU, CARD8 / Fold change vs veh, CARD8 / RFU, STRN3 / Fold change vs veh, STRN3 / RFU, ADK / Fold change vs veh, ADK / RFU, RASSF2 / Fold change vs veh, RASSF2 / RFU, WIPF1 / Fold change vs veh, WIPF1 / RFU, LARP1B / Fold change vs veh, LARP1B / RFU, RASA1 / Fold change vs veh, RASA1 / RFU, RB1 / Fold change vs veh, RB1 / RFU, PPFIA1 / Fold change vs veh, PPFIA1 / RFU, MAT2A / Fold change vs veh, MAT2A / RFU, CCT5 / Fold change vs veh, CCT5 / RFU, WDR92 / Fold change vs veh, WDR92 / RFU, CUX1 / Fold change vs veh, CUX1 / RFU, TTC7A / Fold change vs veh, TTC7A / RFU, TMEM135 / Fold change vs veh, TMEM135 / RFU, DEPTOR / Fold change vs veh, DEPTOR / RFU, CPM / Fold change vs veh, CPM / RFU, DNAJB6 / Fold change vs veh, DNAJB6 / RFU, CACNA2D3 / Fold change vs veh, CACNA2D3 / RFU, DTX4 / Fold change vs veh, DTX4 / RFU, TFCP2 / Fold change vs veh, TFCP2 / RFU, GMCL1 /// GMCL1P1 / Fold change vs veh, GMCL1 /// GMCL1P1 / RFU, AEBP2 / Fold change vs veh, AEBP2 / RFU, SNHG1 /// SNORD22 /// SNORD25 /// SNORD26 /// SNORD27 /// SNORD28 /// SNORD29 /// SNORD31 / Fold change vs veh, SNHG1 /// SNORD22 /// SNORD25 /// SNORD26 /// SNORD27 /// SNORD28 /// SNORD29 /// SNORD31 / Fold change (Aza/veh), C12orf56 (ProbeSet 11735607_a_at) / Fold change (ACY-1035/veh), C12orf56 (ProbeSet 11735607_a_at) / Fold change (Aza/veh), FGFR1OP (ProbeSet 11751329_s_at) / Fold change (ACY-1035/veh), FGFR1OP (ProbeSet 11751329_s_at) / Fold change (Aza/veh), VPS36 (ProbeSet 11739960_a_at) / Fold change (ACY-1035/veh), VPS36 (ProbeSet 11739960_a_at) / RFU SYPL1 (11715823_x_at) / Fold change /veh SYPL1 (11715823_x_at) / RFU IGFBP7 (11715501_s_at) / Fold change /veh IGFBP7 (11715501_s_at) / RFU REEP3 (11722064_at) / Fold change /veh REEP3 (11722064_at) / RFU IGLL1 (11728026_x_at) / Fold change /veh IGLL1 (11728026_x_at): dose or concentration left out as unconfirmed
Details: MV-4-11 cells, 48 hours

SMILES: Nc1ncn([C@@H]2O[C@H](CO)[C@@H](O)[C@H]2O)c(=O)n1 [azacitidine]
- RFU FAM167A (11723789_a_at): 38.83 RFU
